2 compounds from US20240082417A1, “PROTEIN-POLYMER DRUG CONJUGATES” (priority 2022, published 2024) can be followed below.

Non-standard residues stand in square brackets, D forms with d. Residues, ends and D or L forms follow the SMILES beside them. *: point of attachment. Dolaproine = CO[C@@H]([C@@H]1CCCN1)[C@@H](C)C(=O)O; Dil = CC[C@H](C)[C@H](NC)[C@@H](CC(=O)O)OC; NMe2Val = CC(C)[C@@H](C(=O)*)N(C)C; NH(3-hydroxypropyl) = OCCCN*

Data set [1] can be described thus: Tolerability of Auristatin F-hydroxypropylamide (MTD study). It is filed as in vivo, mouse. The text has this: The vehicle control group received physiological saline.
The target in data set [2] is 5T4 antigen on the cell surface (A431 cells and MDA-MB-231-5T4 OE cells) (human) (UniProt Q13641). Description: flow cytometry (MFI) on 5T4-expressing cells at 5 µg/mL, anti-Fc-FITC detection.
UniProt Q13641, sequence (Q13641 32-420): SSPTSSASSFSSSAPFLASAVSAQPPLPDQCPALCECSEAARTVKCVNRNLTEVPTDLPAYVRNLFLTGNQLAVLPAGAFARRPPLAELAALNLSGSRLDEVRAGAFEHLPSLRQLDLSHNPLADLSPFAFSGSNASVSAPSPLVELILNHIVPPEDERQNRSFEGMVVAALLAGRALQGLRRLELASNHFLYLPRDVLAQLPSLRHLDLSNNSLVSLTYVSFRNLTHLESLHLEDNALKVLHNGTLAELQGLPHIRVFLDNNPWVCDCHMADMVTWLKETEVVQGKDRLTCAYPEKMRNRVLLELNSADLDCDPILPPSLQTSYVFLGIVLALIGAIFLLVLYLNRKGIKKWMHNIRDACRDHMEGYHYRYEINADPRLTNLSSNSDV

As for `CC[C@H](C)[C@@H]([C@@H](CC(=O)N1CCC[C@H]1[C@H](OC)[C@@H](C)C(=O)N[C@@H](Cc1ccccc1)C(=O)NCCCO)OC)N(C)C(=O)[C@@H](NC(=O)[C@H](C(C)C)N(C)C)C(C)C` [AF-HPA, auristatin F hydroxypropyl amide] (NMe2Val-V[Dil][Dolaproine]F-{NH(3-hydroxypropyl)}), the “Animals survived by the end of the study (Day 21)” value in data set [1] (single IV dose 3.2 mg/kg) is reported as 2 out of 6. Moreover, the Tolerability result in data set [1] (single IV dose 4.7 mg/kg) is reported as “exceeded the maximum tolerated dose”. Compound unrelated scFvFc fusion protein came in with a fold less binding than the anti-5T4 scFvFc molecules in data set [2] of 200 fold.
